Assay [1] relates to IL-17A-induced G-CSF production in human normal keratinocyte (NHK). The assay is described as follows: NHK assay: IL-17A-induced G-CSF production in normal human keratinocytes. The conditions noted are these: Homo sapiens, Keratinocyte, 24 h, IL-17A 5 ng/mL, average if tested more than once. Format: cell-based. The gist of the method: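 Compound titrations are first mixed with recombinant human IL-17A for 1 h at room temperature. The mixture goes onto adult normal human keratinocytes (final IL-17A 5 ng/mL, 5% FBS, 0.2% DMSO) for 24 h at 37 °C. Secreted G-CSF is then measured by HTRF and IC50 fitted.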

For assay [2], the target named is T1, IL-17A : IL-17RA binding (Homo sapiens, UniProt Q16552, K93Q).
T1 construct: Name: IL-17A-Flag
T1 sequence (Q16552 with tags, fused parts or gaps K93Q): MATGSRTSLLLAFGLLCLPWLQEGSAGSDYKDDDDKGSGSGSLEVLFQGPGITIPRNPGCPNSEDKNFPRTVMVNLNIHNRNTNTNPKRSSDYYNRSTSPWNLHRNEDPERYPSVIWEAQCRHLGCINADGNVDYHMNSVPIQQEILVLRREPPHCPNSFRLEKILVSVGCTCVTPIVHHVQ
The assay can be described thus: IL-17A(FLAG-tagged):IL-17RA(His-tagged) binding disruption Eu-HTRF assay, Protocol 1. The conditions noted are these: FLAG-IL-17A 2.5 nM at 2x final concentration; average if tested more than once. In a few lines:
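IC50 came from a one-site competition fit of the acceptor/donor (665/620 nm) HTRF ratio. His-tagged IL-17RA, Eu-anti-FLAG and D2-anti-His were added after a 1 h rt compound preincubation with FLAG-tagged IL-17A dimer in PBS/0.01% Triton X-100, followed by 2 h at rt before reading.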
On the technique in general: Time-resolved FRET reads energy transfer from a long-lived donor to a nearby acceptor.

Our source for the IC50 values is patent publication US20240376085A1 (Janssen Pharmaceutica NV, priority 2021, published 2024).

As a reminder, the IC50 is the concentration that inhibits the measured activity by half. A low value points to greater potency.

Structures are written as SMILES. A value given as a limit tells only on which side of the number the result lay.

As for `C[C@@H](NC(=O)CCC(F)(F)F)c1ccc2[nH]c([C@@H](NC(=O)[C@@H]3C[C@H]3F)C3CCC(F)(F)CC3)nc2c1` [Example 100, (1S,2R)—N—((S)-(4,4-Difluorocyclohexyl)(5-((R)-1-(4,4,4-trifluorobutanamido)ethyl)-1H-benzo[d]imidazol-2-yl)methyl)-2-fluorocyclopropane-1-carboxamide], the 50% inhibitory concentration (IC50) in assay [1] and in assay [2] was over 100 nM in each case.

Take `O=C(N[C@H](c1nc2cc([C@H](NC(=O)C(F)(F)CC3CC3)C3CC3)ccc2[nH]1)C1CCC(F)(F)CC1)c1nonc1C1CC1` [Example 147, 4-Cyclopropyl-N—((S)-(5-((R)-cyclopropyl(3-cyclopropyl-2,2-difluoropropanamido)methyl)-1H-benzo[d]imidazol-2-yl)(4,4-difluorocyclohexyl)methyl)-1,2,5-oxadiazole-3-carboxamide]: the figures for the IC50 in assay [1] and in assay [2] were under 50 nM and 50 to 100 nM, respectively.

For `C[C@@H](NC(=O)CCC(F)(F)F)c1ccc2[nH]c([C@@H](NC(=O)c3cnn(CC4CC4)n3)C3CCC(F)(F)CC3)nc2c1` [Example 8, 2-(Cyclopropylmethyl)-N—[(S)-(4,4-difluorocyclohexyl)-[6-[(1R)-1-(4,4,4-trifluorobutanoylamino)ethyl]-1H-benzimidazol-2-yl]methyl]triazole-4-carboxamide], the IC50 in assay [1] and in assay [2] was over 100 nM each time.

As to `CC(C)n1nccc1C(=O)NC(COC(C)(C)C(C)(F)F)c1nc2ccc([C@H](NC(=O)CC3CC(F)(F)C3)C3CC3)cc2[nH]1` (single isomer, unassigned) [Example 149, N—((R*)-1-(6-((R)-Cyclopropyl(2-(3,3-difluorocyclobutyl)acetamido)methyl)-1H-benzo[d]imidazol-2-yl)-2-((3,3-difluoro-2-methylbutan-2-yl)oxy)ethyl)-1-isopropyl-1H-pyrazole-5-carboxamide], the figures for the IC50 in assay [1] and in assay [2] were under 50 nM and over 100 nM, respectively.

As for `C[C@@H](NC(=O)CC(C(F)(F)F)C(F)(F)F)c1ccc2[nH]c([C@@H](NC(=O)c3ccnn3CCC(F)(F)F)C3CCC(F)(F)CC3)nc2c1` [Example 126, N—((S)-(4,4-Difluorocyclohexyl)(5-((R)-1-(4,4,4-trifluoro-3-(trifluoromethyl)butanamido)ethyl)-1H-benzo[d]imidazol-2-yl)methyl)-1-(3,3,3-trifluoropropyl)-1H-pyrazole-5-carboxamide], the IC50 in assay [1] was 50 to 100 nM; in assay [2] it was over 100 nM.

As for `C[C@@H](NC(=O)CCC(F)(F)F)c1ccc2nc([C@@H](NC(=O)c3cn(CC(F)(F)F)nc3C3CC3)C3CCC(F)(F)CC3)[nH]c2c1` [Example 75, 3-Cyclopropyl-N—((S)-(4,4-difluorocyclohexyl)(6-((R)-1-(4,4,4-trifluorobutanamido)ethyl)-1H-benzo[d]imidazol-2-yl)methyl)-1-(2,2,2-trifluoroethyl)-1H-pyrazole-4-carboxamide], the half-maximal inhibitory concentration (IC50) in assay [1] and in assay [2] was over 100 nM each time.

`CC(C)n1nccc1C(=O)N[C@H](c1nc2ccc([C@H](NC(=O)CC3CC(F)(F)C3)C3CC3)cc2[nH]1)[C@@H]1C[C@H]2C[C@H]2C1` [Example 255, N—((S)-((1R,3s,5S)-Bicyclo[3.1.0]hexan-3-yl)(6-((R)-cyclopropyl(2-(3,3-difluorocyclobutyl)acetamido)methyl)-1H-benzo[d]imidazol-2-yl)methyl)-1-isopropyl-1H-pyrazole-5-carboxamide]: the IC50 in assay [1] was under 50 nM; in assay [2], 50 to 100 nM.

As for `C[C@@H](NC(=O)CCC(F)(F)F)c1ccc2[nH]c([C@@H](NC(=O)c3ccnn3CC(F)(F)F)C3CCC(F)(F)CC3)nc2c1` [Example 128, N—((S)-(4,4-Difluorocyclohexyl)(5-((R)-1-(4,4,4-trifluorobutanamido)ethyl)-1H-benzo[d]imidazol-2-yl)methyl)-1-(2,2,2-trifluoroethyl)-1H-pyrazole-5-carboxamide], the IC50 in assay [1] and in assay [2] was over 100 nM throughout.
